Laboratory results: patent US10045961B2, “Use of sting agonists to treat chronic hepatitis B virus infection” (DREXEL UNIVERSITY, priority 2013, dated 2018)
Entries after “also recorded” stand apart in the source; their conditions may differ.

Columns and labels:
[1] = tested on: HBV DNA replication in AML12HBV10 cells; experiment: Direct treatment of AML12HBV10 cells, cytoplasmic HBV core DNA by Southern blot; details: for HBV DNA replication, direct treatment: AML12HBV10 cells treated directly for 2 days, cytoplasmic HBV core DNA; for HBV DNA replication, cytokine treatment: AML12HBV10 cells treated for 4 days
Excerpt: AML12HBV10, an immortalized murine hepatocyte (AML12)-derived cell line supporting high level of HBV replication in a tetracycline (tet)-inducible manner, was maintained as described in Xu C, et al. Interferons accelerate decay of replication-competent nucleocapsids of hepatitis B virus.
HBV core DNA extraction from AML12HBV10 cells as well as analyses by Southern blot hybridization and real-time PCR assays were as described previously in Xu C, et al. Interferons accelerate decay of replication-competent nucleocapsids of hepatitis B virus. […] Total cellular RNA was extracted using TRIzol reagent (Invitrogen). HBV RNA was analyzed by Northern blot hybridization with an α-^32P-UTP-labeled full-length minus-stranded RNA probe. HBV capsid and capsid associated viral DNA was analyzed by a native agarose gel electrophoresis followed by transfer to a nitrocellulose membrane. HBV capsids were detected by probing the membrane with an antibody against HBV core protein followed by visualizing with LI-COR Odyssey system. Capsid-associated DNA was detected by hybridization with radioactively labeled HBV riboprobe.
(§4) The assay system was first validated with known TLR agonists. […] Twenty-four hours later, the cells were treated with the indicated concentrations of TLR agonists (direct treatment) (FIG. 1B). […] Cytoplasmic HBV core DNA was analyzed by Southern blot hybridization two days post treatment.
(§5) AMLHBV10 cells, grown in Dulbecco's Modification of Eagle's Medium (DMEM)/F12 medium with 1 μg/ml of tetracycline were seeded in 12-well plate at density of 1×10^5 cell/well for 1 day in absence of tetracycline to release HBV replication. […] HBV core DNA was extracted from AML12HBV10 cells 2 days post treatment, and detected by Southern blot assay.
Cytoplasmic HBV core DNA was analyzed by Southern blot hybridization. NT controls were as described in FIG. 1B (FIG. 3B). […] AML12HBV10 cells treated with the indicated concentrations of mouse alpha IFN (mIFN-α) for 2 days served as positive controls. Cytoplasmic HBV core DNA was analyzed by Southern blot hybridization (FIG. 3D).

[2] = tested on: HBV capsids; experiment: HBV core protein, capsids and capsid-associated DNA in AML12HBV10 cells after indirect treatment; format: cell-based, hepatitis B virus; details: 2 days; for amount of HBV capsid protein: Western blot
Method: HBV core DNA extraction from AML12HBV10 cells as well as analyses by Southern blot hybridization and real-time PCR assays were as described previously in Xu C, et al. Interferons accelerate decay of replication-competent nucleocapsids of hepatitis B virus. J Virol 2010; 84:9332-40, and Campagna M R, et al. Sulfamoylbenzamide Derivatives Inhibit the Assembly of Hepatitis B Virus Nucleocapsids. J Virol 2013. Total cellular RNA was extracted using TRIzol reagent (Invitrogen). HBV RNA was analyzed by Northern blot hybridization with an α-^32P-UTP-labeled full-length minus-stranded RNA probe. HBV capsid and capsid associated viral DNA was analyzed by a native agarose gel electrophoresis followed by transfer to a nitrocellulose membrane. HBV capsids were detected by probing the membrane with an antibody against HBV core protein followed by visualizing with LI-COR Odyssey system. Capsid-associated DNA was detected by hybridization with radioactively labeled HBV riboprobe.
In order to map the HBV replication step(s) being inhibited by DMXAA-induced antiviral response in macrophages, AML12HBV10 cells were treated with conditioned media harvested from TLR agonist- or DMXAA-treated RAW264.7 cells. […]. The AML12HBV10 cells were harvested 2 days after treatment for the following analysis: (FIG. 4A) Intracellular HBV RNA was determined by Northern blot (pgRNA, pre-genomic RNA, envRNAs, viral mRNAs specifying envelope proteins. 18S ribosomal RNA (rRNA) served as loading controls); (FIG. 4B) HBV core protein was determined by Western blot assay using total cell lysate (β-actin served as a loading control); the amounts of HBV capsids (FIG. 4C) and capsid-associated HBV DNA (FIG. 4D) were determined by a native agarose gel assay; and (FIG. 4E) Cytoplasmic HBV core DNA was determined by Southern blot hybridization.

[3] = tested on: HBV DNA replication in AML12HBV10 cells; experiment: Indirect treatment: conditioned media from treated RAW264.7 macrophages applied to AML12HBV10 cells, HBV core DNA by Southern blot; details: AML12HBV10 cells treated 2 days with 50% conditioned media from RAW264.7 cells treated 12 h
Method: as §4, §5
Intracellular HBV RNA was determined by Northern blot (ribosomal RNA served as loading control). HBV core protein was determined by Western blot assay using antibody against carboxyl terminal 14 amino acid of HBV core protein (β-actin served as loading control). HBV nucleocapsids were examined by a particle gel assay to detect both the intact nucleocapsids and capsid-associated HBV DNA. Encapsidated HBV (core DNA) replication intermediates (RC, DSL and SS) were determined by Southern blot assay.
Using the assay system described above, 75 flavonoids in MicroSource compound collection (MicroSource Discovery Systems, Inc.) were tested again. […] Cytoplasmic HBV core DNA was analyzed by Southern blot hybridization. […] AML12HBV10 cells treated with the indicated concentrations of mouse alpha IFN (mIFN-α) for 2 days served as positive controls. Cytoplasmic HBV core DNA was analyzed by Southern blot hybridization (FIG. 3D).

[4] = HBV hydrodynamic mouse model, body weight; format: in vivo, NOD/SCID mice; details: single 25 mg/kg intraperitoneal dose, 24 h; data not shown
Method: (§1) Ten-week-old female NOD/SCID mice were purchased from Vital River Laboratory Animal Technology Co. Ltd. All experiments were conducted with Institutional Animal Care and Use Committee approval. To establish HBV hydrodynamic model, 13.5 μg of plasmid pTmcsHBV1.3 expressing 1.3mer HBV genome and 4.5 μg of pCMV-SB expressing the Sleeping Beauty transposase were injected through tail vein, according to procedures previously described. To test the efficacy of DMXAA in vivo, 7 days post injection, mice were treated with either DMXAA (in PBS with 7.5% sodium Bicarbonate) at 25 mg/kg or vehicle, via intraperitoneal injection. Mice were sacrificed 24 h after treatment. Intrahepatic HBV core DNA was extracted and quantified by using a real-time PCR assay. Intrahepatic total RNA was extracted and the interferon stimulated genes (ISGs) OAS1b and viperin mRNAs were determined by real-time RT-PCR assay. Weight of individual mouse was monitored before and 24 h after the treatment.

[5] = tested on: IκBα; experiment: Western blot of IκBα degradation in RAW264.7 cells; format: cell-based, mouse; details: 125 μM DMXAA
Excerpt: (§2) Total cellular proteins were fractioned by SDS-PAGE and transferred onto PVDF membranes. Total and phosphorylated STING, TBK1, p38, JNK and Erk as well as IkB-α were detected by Western blot assays with their specific antibodies. β-actin served as a loading control.

[6] = tested on: HBV; experiment: HBV DNA hydrodynamic mouse model, intrahepatic HBV core DNA; format: in vivo, NOD/SCID mice; details: single 25 mg/kg intraperitoneal dose, 24 h after treatment
Method: as §1
(§3) To further validate the antiviral effects of DMXAA in vivo, NOD/SCID mice were hydrodynamically injected with HBV 1.3mer plasmid to establish HBV replication in hepatocytes. […] (FIG. 9A) Twenty-four hours post treatment, HBV core DNA was extracted from livers and analyzed by a real-time PCR assay. […] (FIGS. 9B and 9C) Total RNA was extracted from livers and mRNA levels of OAS1b and viperin were analyzed by real-time RT-PCR assay. […]

[7] = tested on: HBV DNA in AML12HBV10 cells; experiment: Conditioned media from shSTING RAW264.7 cells on AML12HBV10 cells, HBV core DNA by real time PCR; format: cell-based, hepatitis B virus; details: 2 days
[8] = tested on: proinflammatory cytokines (IL6, IL1, IL10, TNF-α, IL12) and chemokine CXCL10; experiment: qRT-PCR of proinflammatory cytokine and chemokine mRNA in RAW264.7 cells
Method: (§6) For cytokine gene expression analysis, total RNA was extracted using TRIzol reagent. cDNAs were synthesized using SuperScript III (Invitrogen). Quantitative real-time PCR analysis was performed using a LightCycler 480 II (Roche).
(§7) The amounts of mRNA specifying the specific cytokines and chemokines were quantified by real-time RT-PCR assays. Data (mean±standard deviation, N=3) were expressed as fold induction of gene expression relative to untreated controls.

[9] = tested on: TBK1; experiment: Western blot of TBK1 phosphorylation in RAW264.7 cells; format: cell-based, mouse; details: 125 μM DMXAA
Excerpt: as §2

[10] = tested on: HBV replication in human hepatoma cells (HepDES19); experiment: Conditioned medium from DMXAA-treated THP-1hSTINGS162 cells on DES19 human hepatoma cells, HBV core DNA by real time PCR; details: media from THP1-hSTING/S162 cells treated 12 hrs, 6 days
Method: Additionally, THP-1hSTINGS162 cells were treated with DMXAA for 12 hrs, conditioned medium with indicated dilution were then transferred to DES19, a human hepatoma cell line harboring HBV replication. HBV core DNA was extracted 6 days post treatment, and quantified by real time PCR assay. HBV DNA expression levels (means±standard deviations, N=3) were expressed as percentage relative to mock treated control. DES19 cells treated with IFN-α served as positive control (FIG. 10B).

[11] = tested on: IFN-β mRNA; experiment: qRT-PCR of IFN-β mRNA in RAW264.7 cells
Method: as §6, §7

[12] = tested on: interferon stimulated genes (ISGs) OAS1b and viperin; experiment: HBV hydrodynamic mouse model, intrahepatic ISG mRNA (OAS1b, viperin); format: in vivo, NOD/SCID mice; details: single 25 mg/kg intraperitoneal dose, 24 h
Method: as §1, §3

[13] = tested on: MAPK pathways; experiment: Western blot of MAPK pathway activation (phosphorylated p38α, JNK, ERK) in RAW264.7 cells; format: cell-based, mouse
Excerpt: as §2

[14] = tested on: HBV DNA in AML12HBV10 cells; experiment: Blockade of type I IFN receptor (IFNAR1 antibody) in AML12HBV10 cells, HBV DNA by real-time PCR; format: cell-based, hepatitis B virus; details: AML12HBV10 cells pre-incubated with 10 μg/ml IFNAR1 antibody; mIFN-α directly or conditioned media from DMXAA-treated RAW264.7 cells
Method: AML12HBV10 cells cultured in absence of tetracycline for 1 day, were incubated either with or without 10 μg/ml of a monoclonal antibody against type I interferon receptor IFNAR1 (Ab INFAR) at 37° C. for 1 h, followed by treatment for 2 days with the indicated concentrations of mIFN-α (FIG. 7A) or 50% of conditioned media harvested from RAW264.7 cells (treated with the indicated concentrations of DMXAA for 12 h) (FIG. 7B). Cytolplasmic HBV DNA were quantified by a real-time PCR assay and data (mean±standard deviation, N=4) were presented as percentage of mock-treated controls (NT). AML12HBV10 cells cultured in the absence of tetracycline were treated with the indicated concentrations of IL-1, IL-6 or TNF-α for 4 days (FIG. 7C). Cytoplasmic HBV core DNA was analyzed by Southern blot hybridization.

Molecule: Pam3CSK4
- HBV DNA replication, direct treatment [1]: did not apparently inhibit HBV DNA replication
- amount of HBV capsid protein [2]: to lesser extents
- HBV DNA replication, indirect treatment [3]: potently inhibited HBV DNA replication

Molecule: O=c1cc(-c2ccccc2O)oc2cc(O)ccc12 [7, 2′-dihydroxyflavone]
- HBV DNA replication, direct treatment [1]: not direct
- HBV DNA replication, indirect treatment [3]: indirect, but not direct, antiviral activity against HBV
- HBV DNA replication, indirect treatment ([3]; listed as 7, 2′ dihydroxyflavone): induces antiviral activity against HBV

Molecule: CCN(CC)CCOc1ccc2c(c1)C(=O)c1cc(OCCN(CC)CC)ccc1-2 [tilorine, 2,7-Bis[2-(diethylamino)ethoxy]-9-fluorenone]
- HBV DNA replication, direct treatment [1]: neither directly nor indirectly inhibited HBV replication
- HBV DNA replication, indirect treatment [3]: neither directly nor indirectly inhibited HBV replication

Molecule: poly I:C
- HBV DNA replication, direct treatment [1]: did not apparently inhibit HBV DNA replication
- amount of HBV capsid protein [2]: to lesser extents
- HBV DNA replication, indirect treatment [3]: potently inhibited HBV DNA replication

Molecule: TNF-α
- HBV DNA replication, cytokine treatment [1]: inhibited HBV DNA replication

Molecule: CCNCc1nc2c(N)nc3ccccc3c2n1CC(C)(C)O [gardiquimod]
- HBV DNA replication, direct treatment [1]: did not apparently inhibit HBV DNA replication
- HBV DNA replication, indirect treatment [3]: potently inhibited HBV DNA replication

Molecule: Cc1ccc2c(=O)c3cccc(CC(=O)O)c3oc2c1C [DMXAA, 5,6-dimethylxanthenone-4-acetic acid]
- reduction of average body weight [4]: approximately 8%
- degradation of IκBα [5]: induced degradation of IκBα
- reduction of intrahepatic HBV core DNA versus vehicle [6]: 1.3 log
- antiviral activity against HBV with STING knockdown cells [7]: significantly attenuated
- time of peak of inflammatory cytokine response (IL-1 and IL-10) [8]: ≥ 6 h
- IFN and inflammatory cytokine response profile ([8]; qRT-PCR, DMXAA compared with TLR agonists): predominant IFN response, but less vigorous inflammatory cytokine response
- phosphorylation of TBK1 [9]: efficiently induced phosphorylation of TBK1
- HBV DNA replication, direct treatment [1]: does not inhibit HBV DNA replication
- HBV replication in human hepatoma cells, conditioned media [10]: efficiently suppressed HBV replication
- time of peak of IFN-β response [11]: 2 h
- IFN-β mRNA expression relative to TLR1/2, TLR3 or TLR7 agonists ([11]; 125 μM, 2 h post treatment): approximately 100 fold
- OAS1b expression in liver [12]: significantly induced
- viperin expression in liver [12]: significantly induced
- time at which activation of MAPK pathways (phosphorylated p38α, JNK, ERK) was evident [13]: 90 min
- amounts of HBV DNA replication intermediates [2]: decreased
- amount of HBV capsid protein [2]: reduced the amounts of HBV capsid protein
- antiviral response after blockade of type I IFN receptor [14]: significantly attenuated
- HBV DNA replication, indirect treatment [3]: strong indirect anti-HBV activity; also recorded: inhibits HBV DNA replication in the mouse hepatocytes in a dose-dependent manner

Molecule: IFN-α
- antiviral response after blockade of type I IFN receptor [14]: significantly reduced

B1: IL-6: Recombinant murine IL-6 from PBL InterferonSource (protein, UniProt P08505 25-211, looked up)
Interleukin-6: FPTSQVRRGDFTEDTTPNRPVYTTSQVGGLITHVLWEIVEMRKELCNGNSDCMNNDDALAENNLKLPEIQRNDGCYQTGYNQEICLLKISSGLLEYHSYLEYMKNNLKDNKKDKARVLQRDTETLIHIFNQEVKDLHKIVLPTPISNALLTDKLESQKEWLRTKTIQFILKSLEEFLKVTLRSTRQT
- HBV DNA replication, cytokine treatment [1]: only TNF-α inhibited HBV DNA replication
